The record followed here is US7408024B2, “Somatostatin antagonists” (The Administrators of the Tulane Educational Fund, priority 2001, dated 2008).

The target of assay [1] is T1, hsst2 (Homo sapiens, UniProt P30874).
T1 construct: each containing the entire coding region of the full-length receptors; expressed in transfected cells
In words: Radioligand binding, cloned human sst2 receptor (CHO-K1 membranes). Conditions: [125I]MK-678, CHO-K1 cell membranes; single values = one binding experiment; read-out: K1 ± SEM hsst2. The text has this:
(§1) The genomic clones containing the human somatostatin receptors (hsstr1-5) (Yamada, Y., et al. al., Proc. Natl. Acad. Sci. USA. 1992, 89, 251-255; Yasuda, K., et al., J. Biol. Chem. 1992, 267, 20422-20428; Yamada, Y., et al., Mol. Pharmacol. 1992, 42, 2136-2142; Rohrer, L., et al., Proc. Natl. Acad. Sci. USA. 1993, 90, 4196-4200.), were kindly provided by Dr. Graeme I. Bell (University of Chicago). The hsstr1, hsstr2, hsstr3, hsstr4 and hsstr5 cDNAs were isolated as a 1.5-kb PstI-XmnI fragment, 1.7-kb BamHI-HindIII fragment, 2.0-kb NcoI-HindIII fragment, 1.4-kb NheI-NdeI fragment, and a 1.2-kb HindIII-XbaI fragment, respectively, each containing the entire coding region of the full-length receptors. These fragments were independently subdloned into the corresponding restriction endonuclease sites in the mammalian expression vector pCMV5, downstream from the human cytomegalovirus (CMV) promoter, to produce the expression plasmids pCMV5/hsstr1, pCMV5/hsstr2, pCMV5/hsstr3, pCMV5/hsstr4 and pCMV5/hsstr5. For transfection into CHO-K1 cells, a plasmid, pRSV-neo (American Type Culture Collection, Rockville, Md.), carrying the neomycin mammalian cell selectable marker was added.
(§2) Transfections were performed by the calcium phosphate method. CHO-K1 cells are maintained in α-minimum essential medium (α-MEM; Gibco) supplemented with 10% fetal calf serum and transfected with each of the expression plasmids using calcium phosphate precipitation. Clones that had inherited the expression plasmid were selected in α-MEM supplemented with 500 μg mL^−1 of geneticin (G418; Gibco). Independent CHO-K1 clones were picked by glass-ring cloning and expanded in culture in the selective media. Membranes were prepared from the isolated clones and hsstr expression was initially assessed for binding with [^125I]Tyr^11-SRIF and [^125]IMK-678 (for sstr2).
(§3) Cell membranes of the 5 receptor types were obtained from homogenates (Polytron setting 6, 15 sec) of the corresponding CHO-K1 cells, in ice-cold Tris-HCl (50 mM) and centrifuged (39000 g, 10 min×2), with an intermediate resuspension in fresh buffer. The final pellets are resuspended in Tris-HCl (10 mM) for assay. Aliquots of the membranes are incubated (30 min at 37° C.) with 0.05 nM [^125I]Tyr^11-SRIF (types 1,3,4,5) or [^125I]MK-678 (type 2) in 50 mM HEPES (pH 7.4) containing BSA (10 mg mL^−1); MgCl2 (5 mM), Trasylol (200 kIU mL^−1), bacitracin (0.02 mg mL^−1), and phenylmethanesulfonyl fluoride (0.02 mg mL^−1). The final assay volume is 0.3 mL and incubations are terminated by rapid filtration through GF/C filters pre-soaked in 0.3% poly(ethylenimine) using a Brandel rapid filtration module. Each tube and filter is then washed with aliquots of cold buffer (3×5 mL).
(§4) Specific binding is. defined as the total radioligand bound minus that bound in the presence of 1.0 μM SRIF.

The subject of assay [2] is SRIF inhibition of GH release in rat anterior pituitary cells. It counts as cell-based. As to the method: Anterior pituitaries from adult male rats were collected and dispersed by a previously described trypsin/DNase method. (Murphy, W. A.; Taylor, J.; Moreau, J.-P. and Coy, D. […] Sigma) and nystatin (10,000 U mL^−1; Gibco). The cells were randomly plated at a density of approximately 200,000 cells/well (Costar cluster 24; Rochester Scientific Co., Rochester, N.Y.). The plated cells were maintained in the above Dulbecco's medium in a humidified atmosphere of 95% air/5% CO2 at 37° C. for 4-6 days. In preparation for a hormone challenge, the cells were washed with medium 199 (Gibco, 3×1 mL). […] Sigma Chemical Co.). […] After 3 h incubation in an air/carbon dioxide atmosphere (95/5%, 3 h at 37° C.), the medium was removed and stored at −20° C. until assayed for hormone content. Growth hormone in media was measured by a standard double antibody RIA using components generously supplied by Dr. A. F. Parlow at the National Hormone and Pituitary Program (NHHP) Torrance, Calif.

Assay [3] concerns the target T2, hsst5 (Homo sapiens, UniProt P35346).
T2 construct: each containing the entire coding region of the full-length receptors; expressed in transfected cells
As to the kind of experiment: Radioligand binding, cloned human sst5 receptor (CHO-K1 membranes). Conditions: [125I]Tyr11-SRIF, CHO-K1 cell membranes; single values = one binding experiment; read-out: K1 ± SEM hsst5.
Excerpt: as §1, §2, §3, §4

Assay [4] concerns the target T3, hsst1 (Homo sapiens, UniProt P30872).
T3 construct: each containing the entire coding region of the full-length receptors; expressed in transfected cells
As to the kind of experiment: Radioligand binding, cloned human sst1 receptor (CHO-K1 membranes). To be noted: [125I]Tyr11-SRIF, CHO-K1 cell membranes; single values = one binding experiment; read-out: K1 ± SEM hsst1.
Excerpt: as §1, §2, §3, §4

Assay [5] has as its target T4, hsst3 (Homo sapiens, UniProt P32745).
T4 construct: each containing the entire coding region of the full-length receptors; expressed in transfected cells
In words: Radioligand binding, cloned human sst3 receptor (CHO-K1 membranes). To be noted: [125I]Tyr11-SRIF, CHO-K1 cell membranes; single values = one binding experiment; read-out: K1 ± SEM hsst3.
Excerpt: as §1, §2, §3, §4

For assay [6], the target named is T5, hsst4 (Homo sapiens, UniProt P31391).
T5 construct: each containing the entire coding region of the full-length receptors; expressed in transfected cells
As to the kind of experiment: Radioligand binding, cloned human sst4 receptor (CHO-K1 membranes). Conditions: [125I]Tyr11-SRIF, CHO-K1 cell membranes; single values = one binding experiment; read-out: K1 ± SEM hsst4.
Excerpt: as §1, §2, §3, §4

Where a SMILES comes first, the peptide text is derived from it. Bridges are numbered along the chain shown (N, C = ends). [ ]: non-standard residue; d: D form. Phe(4-Cl) = N[C@@H](Cc1ccc(Cl)cc1)C(=O)O; dNMeW = CN[C@H](Cc1c[nH]c2ccccc12)C(=O)O; 2Nal = N[C@@H](Cc1ccc2ccccc2c1)C(=O)O; 3Pal = N[C@@H](Cc1cccnc1)C(=O)O; NMeK = CN[C@@H](CCCCN)C(=O)O

T1 sequence (P30874 whole entry): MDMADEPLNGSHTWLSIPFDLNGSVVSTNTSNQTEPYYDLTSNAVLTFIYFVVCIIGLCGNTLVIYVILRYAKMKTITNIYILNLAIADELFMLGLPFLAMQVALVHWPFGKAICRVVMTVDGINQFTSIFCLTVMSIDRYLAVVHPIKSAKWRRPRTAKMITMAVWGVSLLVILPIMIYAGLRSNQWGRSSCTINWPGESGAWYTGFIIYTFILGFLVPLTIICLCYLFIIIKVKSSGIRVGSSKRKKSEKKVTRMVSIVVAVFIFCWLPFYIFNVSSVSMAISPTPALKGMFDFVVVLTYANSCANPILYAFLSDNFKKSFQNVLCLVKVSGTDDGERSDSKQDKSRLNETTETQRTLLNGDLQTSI
T5 sequence (P31391 whole entry): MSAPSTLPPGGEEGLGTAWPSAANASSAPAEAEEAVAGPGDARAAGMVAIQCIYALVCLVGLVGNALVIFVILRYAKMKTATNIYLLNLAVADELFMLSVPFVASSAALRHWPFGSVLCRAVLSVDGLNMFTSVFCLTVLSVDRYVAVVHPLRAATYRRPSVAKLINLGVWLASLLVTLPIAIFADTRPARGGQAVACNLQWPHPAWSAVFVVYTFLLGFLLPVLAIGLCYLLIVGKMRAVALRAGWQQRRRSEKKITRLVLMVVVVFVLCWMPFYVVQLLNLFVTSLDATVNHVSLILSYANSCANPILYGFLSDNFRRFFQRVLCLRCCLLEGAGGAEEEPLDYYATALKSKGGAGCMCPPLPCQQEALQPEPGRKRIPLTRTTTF
T4 sequence (P32745 whole entry): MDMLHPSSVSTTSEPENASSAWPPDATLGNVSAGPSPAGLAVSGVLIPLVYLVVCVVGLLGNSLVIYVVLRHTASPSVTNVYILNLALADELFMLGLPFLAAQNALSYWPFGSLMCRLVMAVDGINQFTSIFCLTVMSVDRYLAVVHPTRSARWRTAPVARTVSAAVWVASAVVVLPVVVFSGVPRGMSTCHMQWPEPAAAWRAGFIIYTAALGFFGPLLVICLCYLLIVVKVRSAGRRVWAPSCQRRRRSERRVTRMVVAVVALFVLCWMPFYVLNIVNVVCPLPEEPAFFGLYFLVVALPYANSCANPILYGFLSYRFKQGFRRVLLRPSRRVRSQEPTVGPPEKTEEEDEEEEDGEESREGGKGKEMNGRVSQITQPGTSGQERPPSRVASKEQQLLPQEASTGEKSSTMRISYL
T3 sequence (P30872 whole entry): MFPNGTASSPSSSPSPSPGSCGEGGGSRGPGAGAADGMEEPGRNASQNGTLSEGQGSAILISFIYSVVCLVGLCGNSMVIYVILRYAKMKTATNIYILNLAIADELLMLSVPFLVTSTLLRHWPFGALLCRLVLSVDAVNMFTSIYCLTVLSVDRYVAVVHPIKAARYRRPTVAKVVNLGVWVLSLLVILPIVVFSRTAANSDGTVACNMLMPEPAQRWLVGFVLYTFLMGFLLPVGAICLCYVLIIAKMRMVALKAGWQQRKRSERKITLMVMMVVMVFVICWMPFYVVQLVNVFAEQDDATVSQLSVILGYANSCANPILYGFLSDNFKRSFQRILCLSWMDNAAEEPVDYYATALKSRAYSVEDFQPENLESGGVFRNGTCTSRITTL
T2 sequence (P35346 whole entry): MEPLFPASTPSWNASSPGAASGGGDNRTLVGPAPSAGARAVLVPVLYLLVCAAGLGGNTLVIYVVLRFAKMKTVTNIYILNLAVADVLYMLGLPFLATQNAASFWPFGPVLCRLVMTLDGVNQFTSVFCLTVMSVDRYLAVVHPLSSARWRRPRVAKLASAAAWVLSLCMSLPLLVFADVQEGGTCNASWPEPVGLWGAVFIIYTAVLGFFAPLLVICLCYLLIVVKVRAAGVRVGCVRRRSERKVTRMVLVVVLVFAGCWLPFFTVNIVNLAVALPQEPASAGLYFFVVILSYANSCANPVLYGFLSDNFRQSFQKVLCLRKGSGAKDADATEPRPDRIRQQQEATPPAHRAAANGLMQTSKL

With `CN[C@@H](Cc1ccc(Cl)cc1)C(=O)N[C@@H]1CSSC[C@@H](C(=O)N[C@@H](Cc2ccc3ccccc3c2)C(N)=O)NC(=O)[C@H]([C@@H](C)O)NC(=O)[C@H](CCCCN)NC(=O)[C@@H](Cc2c[nH]c3ccccc23)NC(=O)[C@H](Cc2cccnc2)NC1=O` [Peptide 1, NmeCpa-cyclo(DCys-3-Pal-DTrp-Lys-Thr-Cys)-2-Nal-NH2], the Ki in assay [1] was found to be 36 ± 7.6 nM; in assay [3], 40.1 ± 18.8 nM; in assay [4] it was 1000 nM; in assay [5] it was 330 ± 126 nM; in assay [6], 1000 nM. In assay [2], this molecule gave an IC50 of 7.8 ± 2.7 nM.

Turning to `C[C@@H](O)[C@@H]1NC(=O)[C@H](CCCCN)N(C)C(=O)[C@@H](Cc2c[nH]c3ccccc23)N(C)C(=O)[C@H](Cc2cccnc2)NC(=O)[C@H](NC(=O)[C@@H](N)Cc2ccc(Cl)cc2)CSSC[C@@H](C(=O)N[C@@H](Cc2ccc3ccccc3c2)C(N)=O)NC1=O` [Peptide 11, Cpa-cyclo(DCys-3-Pal-NMeDTrp-NMeLys-Thr-Cys)-2-Nal-NH2] (H-[Phe(4-Cl)][dC][3Pal][dNMeW][NMeK]TC[2Nal]-NH2; disulfide 2-7), the Ki is 9.33 ± 0.62 nM in assay [1]; 112 ± 19 nM in assay [3]; 1000 nM in assay [4]; 140 ± 10.4 nM in assay [5]; 1000 nM in assay [6]. The same molecule displayed an IC50 in assay [2] of 2.5 ± 0.2 nM.

Turning to `C[C@@H](O)[C@@H]1NC(=O)[C@H](CCCCN)N(C)C(=O)[C@@H](Cc2c[nH]c3ccccc23)NC(=O)[C@H](Cc2ccc(O)cc2)NC(=O)[C@H](NC(=O)[C@@H](N)Cc2ccc(Cl)cc2)CSSC[C@@H](C(=O)N[C@@H](Cc2ccc3ccccc3c2)C(N)=O)NC1=O` [Peptide 12, Cpa-cyclo(DCys-Tyr-DTrp-NMeLys-Thr-Cys)-2-Nal-NH2] (H-[Phe(4-Cl)][dC]Y[dW][NMeK]TC[2Nal]-NH2; disulfide 2-7), the Ki in assay [1] came out at 5.51 ± 1.85 nM; in assay [4], 1000 nM; in assay [5] it was 115 ± 16.9 nM; in assay [6], 1000 nM. In addition, in assay [2], the concentration for half-maximal inhibition (IC50) amounted to 0.53 ± 0.17 nM.

Usually IC50 stands for the concentration at which inhibition is half-maximal. Read a low IC50 as inhibition by little substance.
